Measured values as given in patent publication US5132291A, “Antivirals and methods for increasing the antiviral activity of AZT” (priority 1989, dated 1992).

Key:
[1] = Lymphoblast assay, effects on cell growth, SupT-1 T-cell line; assay type: cell-based; conditions: human, supt-1 cells, AICA riboside alone, SUP T-1, read-out: reduction in T-cell growth
Description: Several lymphoblast lines were utilized in conjunction with varying doses of antiviral agents to determine their effects on cell growth. In this method a daily cell count over a period of time, post-addition of antiviral compounds, can be compared with the normal cell growth curve.
Two representative T-cell lines, SupT-1 and CEM, and a B-cell line, WI-L2, were grown to mid-log phase 5×10^5 cells/ml in 50 ml of RPMI 1640 (Irvine Scientific) supplemented with 10% heat-inactivated fetal calf serum (Gemini-Bioproducts) and 1% glutamine (Gibco) to standardize seeding conditions and to assure a population of logarithmically growing cells.
An appropriate number cf T-25 flasks (Corning) were seeded with evenly suspended cells at 0.5×10^5 cells/ml in 20 ml of fresh growth media. Including a control condition, each set of flasks was treated with a dose range of antiviral compound for each cell line. Each dose condition was repeated in triplicate. All flasks were incubated for 5 days at 37° C. in a 5% CO2 incubator.
Every 24 hours for 5 days, three 0.2 ml samples of each flask were diluted in 9.8 ml of isoton (Fisher Scientific) and counted on a cell counter (Coulter Co.). The average of each flask was recorded, and the average of each triplicate antiviral does was then averaged and recorded.

[2] = system: BAG vector pseudotyped by MA (amphotrophic murine leukemia virus); assay: U937/BAG+MA colony resistance assay titered on 208F rat fibroblasts; assay type: cell-based; conditions: 500 μM AICA riboside
Description: A second, similar assay system was utilized in which a human macrophage line (U937) carrying the BAG retroviral vector construct (having neomycin resistance and beta-galactosidase marker genes), Cepko, PNAS, Vol. 84, p. 156-160 (1987), was infected with MA (amphotrophic MLV [murine leukemia virus]). MA was used to pseudotype the replication-defective BAG vector, which was then titered on 208F cells. According to this assay, the results of which are shown in FIG. 1c, 0.01 μM AZT and 500 μM AICA riboside were both effective against murine retroviruses. […]
In this colony-forming bioassay for the characterization of antiviral compounds against retroviruses, a replication-defective retroviral vector construct having the ability to confer neomycin-resistance (U937/BAG or N2) is psuedotyped, infects a single cell, and under neomycin selection, allows the recipient cell to form a colony. Since each infection yields a neomycin-resistant cell capable of producing a discrete group of cells, colonies can be counted, resulting in a linear relationship between the number of colonies and the first order of virus concentration. […]
After drying, the plates were stained with 2 ml of 1:20 Glemsa (Sigma) for 1 hour. […] All colonies containing 50 or more cells were scored.

NC(=O)c1ncn([C@@H]2O[C@H](CO)[C@@H](O)[C@H]2O)c1N [AICA riboside, 5-amino-1-β-D-ribofuranosyl-imidazole-4-carboxamide]
inhibition at 500 µM [1]: 30 to 50%
effectiveness against murine retroviruses [2]: effective
